Data as given in US6867207B2, “IL-5 inhibiting 6-azauracil derivatives” (Janssen Pharmaceutica N.V., priority 1997, dated 2005).

Each molecule was assayed on IL-5 production (assay: In vitro inhibition of IL-5 production in human blood (phytohemagglutinin-stimulated whole blood, ELISA)). Conditions: test dose 1×10^−6 M, 48 hours.
Type: cell-based
Summary of the method: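 Percent inhibition of IL-5, quantified by ELISA in cell-free supernatants, is given at a single dose of 1×10^−6 M (or 1×10^−5 M). Threefold-diluted human whole blood from healthy men received compound for 60 min at 37° C before 48 h PHA stimulation at 2 μg/mL.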
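Further: values marked with an asterisk were tested at 10 µM and unmarked values at 1 µM.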

SMILES | % inh. (percentage inhibition of IL-5 production)
CN(Cc1sc(C(c2ccc(Cl)cc2)c2c(Cl)cc(-n3ncc(=O)[nH]c3=O)cc2Cl)nc1-c1ccccc1)C1CCCCC1 (racemic) [Comp 334] | 75%
CCOC(=O)Cc1nnc(C(c2ccc(Cl)cc2)c2c(Cl)cc(-n3ncc(=O)[nH]c3=O)cc2Cl)o1 (racemic) [Compound 176] | 3%
O=c1cnn(-c2cc(Cl)c(C(Sc3nc(-c4ccccc4)cs3)c3ccc(Cl)c(C(F)(F)F)c3)c(Cl)c2)c(=O)[nH]1 (centres unmarked) [Compound 381] | 95%
O=c1cnn(-c2cc(Cl)c(C(c3ccc(Cl)cc3)c3nc(-c4c(Cl)cccc4Cl)cs3)c(Cl)c2)c(=O)[nH]1 (racemic) [Comp 264] | 79%
CCOC(=O)c1sc(C(c2ccc(Cl)cc2)c2c(Cl)cc(-n3ncc(=O)[nH]c3=O)cc2Cl)nc1-c1ccccc1 (racemic) [Comp 29] | 95%
O=c1cnn(-c2cc(Cl)c(C(CSc3ccccn3)c3ccc(Cl)cc3)c(Cl)c2)c(=O)[nH]1 (racemic) [Compound 422, (±)-2-[3,5-dichloro[1-(4-chlorophenyl)-2-(2-pyridinylthio)ethyl]phenyl-1,2,4-triazine-3,5(2H,4H)-dione] | 87%
Cc1nc(C(c2ccc(Cl)cc2)c2ccc(-n3ncc(=O)[nH]c3=O)cc2Cl)c(-c2ccccc2)s1 (racemic) [Compound 369] | 66%
Cc1sc(-c2ccccc2)nc1C(c1ccc(Cl)cc1)c1c(Cl)cc(-n2ncc(=O)[nH]c2=O)cc1Cl (racemic) [Compound 365] | 88%
O=c1cnn(-c2ccc(C(c3ccncc3)c3ccc(Cl)cc3)c(Cl)c2)c(=O)[nH]1 (centres unmarked) [Comp 112] | 62%
Cc1c(NS(N)(=O)=O)cccc1-c1nnc(C(c2ccc(Cl)cc2)c2c(Cl)cc(-n3ncc(=O)[nH]c3=O)cc2Cl)o1 (racemic) [Compound 218] | 4%
COC(C)c1sc(C(c2ccc(Cl)cc2)c2c(Cl)cc(-n3ncc(=O)[nH]c3=O)cc2Cl)nc1-c1ccccc1 (mixture of isomers) [Comp 315] | 93%
Cc1cc(C)nc(SC(c2ccc(Cl)cc2)c2ccc(-n3ncc(=O)[nH]c3=O)cc2Cl)n1 (racemic) [Compound 66] | 64%
O=c1cnn(-c2ccc(C(Sc3nc[nH]n3)c3ccc(Cl)cc3)c(Cl)c2)c(=O)[nH]1 (racemic) [Compound 55] | 26%
COCc1sc(C(c2ccc(Cl)cc2)c2c(Cl)cc(-n3ncc(=O)[nH]c3=O)cc2Cl)nc1-c1ccccc1 (racemic) [Comp 278] | 97%
O=c1cnn(-c2cc(Cl)c(C(c3ccc(Cl)cc3)c3nc(-c4ccccc4F)cs3)c(Cl)c2)c(=O)[nH]1 (racemic) [Comp 242] | 98%
CNC(=O)Cc1sc(C(c2ccc(Cl)cc2)c2c(Cl)cc(-n3ncc(=O)[nH]c3=O)cc2Cl)nc1-c1ccccc1 (racemic) [Comp 301] | 33%
CN(C)C(=O)CCc1sc(C(c2ccc(Cl)cc2)c2c(Cl)cc(-n3ncc(=O)[nH]c3=O)cc2Cl)nc1-c1ccccc1 (racemic) [Comp 281] | 91%
O=c1cnn(-c2cc(Cl)c(C(c3ccc(Cl)cc3)c3nc(-c4ccccc4Cl)cs3)c(Cl)c2)c(=O)[nH]1 (racemic) [Comp 32] | 90%

SMILES | % inh. (percentage inhibition of IL-5 production)
O=c1cnn(-c2cc(Cl)c(C(c3ccc(Cl)cc3)c3nc(-c4cccc(C(F)(F)F)c4)cs3)c(Cl)c2)c(=O)[nH]1 (racemic) [Comp 20] | 70%
COCCNC(c1ccc(Cl)cc1)c1ccc(-n2ncc(=O)[nH]c2=O)cc1Cl (racemic) [Compound 41] | 11%
O=c1cnn(-c2cc(Cl)c(C(Sc3nc(-c4cccs4)cs3)c3ccc(Cl)c(C(F)(F)F)c3)c(Cl)c2)c(=O)[nH]1 (centres unmarked) [Compound 390] | 89%
COc1cc(C)nc(NC(c2ccc(Cl)cc2)c2ccc(-n3ncc(=O)[nH]c3=O)cc2Cl)n1 (racemic) [Compound 42] | 57%
CC(c1ccc(Cl)cc1)(c1nc(-c2ccccc2)no1)c1ccc(-n2ncc(=O)[nH]c2=O)cc1Cl (racemic) [Comp 106] | 77%
Nc1cc(SC(c2ccc(Cl)cc2)c2ccc(-n3ncc(=O)[nH]c3=O)cc2Cl)nc(N)n1 (racemic) [Compound 68] | 60%
CC(c1ccc(Cl)c(C(F)(F)F)c1)(c1nc(-c2ccccc2)cs1)c1ccc(-n2ncc(=O)[nH]c2=O)cc1Cl (racemic) [Comp 239] | 72%
Cc1nc(-c2ccccc2F)c(C(c2ccc(Cl)cc2)c2c(Cl)cc(-n3ncc(=O)[nH]c3=O)cc2Cl)s1 (racemic) [Compound 152] | 87%
O=c1cnn(-c2ccc(C(SC3=NCCS3)c3ccc(Cl)cc3)c(Cl)c2)c(=O)[nH]1 (racemic) [Compound 78] | 70%
Cc1sc(-c2cccc(F)c2)nc1C(c1ccc(Cl)cc1)c1c(Cl)cc(-n2ncc(=O)[nH]c2=O)cc1Cl (racemic) [Compound 370] | 76%
COc1ccc(Br)c(-c2csc(C(c3ccc(Cl)cc3)c3c(Cl)cc(-n4ncc(=O)[nH]c4=O)cc3Cl)n2)c1 (racemic) [Comp 25] | 88%
O=c1cnn(-c2cc(Cl)c(C(c3ccc(Cl)cc3)c3ccccn3)c(Cl)c2)c(=O)[nH]1 (centres unmarked) [Comp 115] | 71%
O=c1cnn(-c2ccc(C(c3ccc(Cl)cc3)c3nnc(-c4ccccc4)o3)c(Cl)c2)c(=O)[nH]1 (racemic) [Comp 101] | 66%
CCOCc1sc(C(c2ccc(Cl)cc2)c2c(Cl)cc(-n3ncc(=O)[nH]c3=O)cc2Cl)nc1-c1ccccc1 (racemic) [Comp 295] | 90%
O=c1cnn(-c2cc(Cl)c(C(Sc3nccc(N(CCO)CCO)n3)c3ccc(Cl)cc3)c(Cl)c2)c(=O)[nH]1 (racemic) [Compound 358] | 63%
O=c1cnn(-c2cc(Cl)c(C(c3ccc(Cl)cc3)c3nnc(-c4cccnc4)o3)c(Cl)c2)c(=O)[nH]1 (racemic) [Compound 201] | 87%
Nc1ccnc(SC(c2ccc(Cl)cc2)c2ccc(-n3ncc(=O)[nH]c3=O)cc2Cl)n1 (racemic) [Compound 343] | 66%
O=c1cnn(-c2ccc(C(Sc3nnc(C(F)(F)F)[nH]3)c3ccc(Cl)cc3)c(Cl)c2)c(=O)[nH]1 (centres unmarked) [Compound 89] | 19%

Same assay, conditions: test dose 1×10^−6 M, 48 hours, read-out: % inh. (percentage inhibition of IL-5 production)

SMILES | inhibition at 1 µM
O=c1cnn(-c2ccc(C(Nc3ncccn3)c3ccc(Cl)cc3)c(Cl)c2)c(=O)[nH]1 (racemic) [Compound 49, (±)-2-[3-chloro-4-[(4-chlorophenyl)(2-pyrimidinylamino)methyl]phenyl]-1,2,4-triazine-3,5(2H,4H)-dione] | 61%
[N-]=[N+]=Nc1cccc(-c2nnc(C(c3ccc(Cl)cc3)c3c(Cl)cc(-n4ncc(=O)[nH]c4=O)cc3Cl)o2)c1 (racemic) [Compound 194, (±)-2-[4-[[5-(3-azidophenyl)-1,3,4-oxadiazol-2-yl](4-chlorophenyl)methyl]-3,5-dichlorophenyl]-1,2,4-triazine-3,5(2H,4H)-dione] | 83%
